Results taken from PMC7822030, “Hybrid Inhibitors of DNA Gyrase A and B: Design, Synthesis and Evaluation” (Pharmaceutics, 2020).
Like-named read-outs stand apart in the source and are kept apart here.

Columns and labels:
A. baumannii ATCC 17978 = assay: MIC broth microdilution, A. baumannii; assay type: cell-based; settings: Acinetobacter baumannii, ATCC17978, read-out: MIC A. baumannii ATCC #
Excerpt: (§1) E. coli MG1655 originated from the laboratory collection of Dr. Csaba Pál. […] E. coli K-12 BW25113 single-gene knockout mutant lines ΔdapF, ΔmrcB, ΔsurA, ΔacrB and ΔtolC originated form the Keio collection copy owned by the laboratory of Dr. Csaba Pál.
(§2) Cation-adjusted Mueller Hinton II broth (MHBII) was used for growth of the bacteria under standard laboratory conditions, for antimicrobial susceptibility tests, and for selection of resistant variants. To prepare the MHBII broth, 22 g MHBII powder (containing 3 g beef extract, 17.5 g acid hydrolysate of casein, 1.5 g starch; Becton, Dickinson and Co., Franklin Lakes, NJ, USA) was dissolved in 1 L water. MHBII agar was prepared by addition of 14 g agar (Bacto; Molar Chemicals, Halásztelek, Hungary) to 1 L broth.
(§3) Minimum inhibitory concentrations (MICs) were determined using a standard serial broth microdilution technique, according to the Clinical and Laboratory Standards Institute guidelines. […] For Enterococcus sp., the cells were plated in BHI agar plates, and BHI broth was used to determine the MICs. […] Following the dilutions, each well was seeded with 5 × 10^4 bacterial cells. Each measurement was performed in three parallel replicates, and to avoid possible edge effects in the microwell plates, the outside rows (A, H) were filled with sterile medium. Following the inoculations, the plates were covered with the lids and wrapped in polyethylene plastic bags, to minimize evaporation but to allow O2 transfer. […] After incubation, the OD600 of each well was measured using a microplate reader (Synergy 2; Biotek, Winooski, VT, USA).

E. coli ATCC 25922 = assay: MIC broth microdilution, E. coli ATCC 25922; assay type: cell-based; settings: Escherichia coli, ATCC25922, read-out: MIC E. coli ATCC #
Excerpt: as §1, §2, §3

E. coli DNA gyrase = molecular target: T1, E. coli DNA gyrase (Escherichia coli, UniProt P0AES4+P0AES6); assay: E. coli DNA gyrase supercoiling assay; assay type: biochemical
T1 construct: purchased Inspiralis, Norwich, UK
Method: (§4) The assay for determination of the IC50 values was performed according to previously reported procedures.
(§5) Briefly, inhibitory activities were determined using supercoiling (for DNA gyrase) and relaxation (for topoisomerase IV) assay kits (Inspiralis, Norwich, UK) on streptavidin-coated 96-well microtiter plates from Thermo Scientific Pierce (Thermo Fisher Scientific, Waltham, MA, USA). First, the plates were rehydrated with Wash Buffer and the biotinylated oligonucleotide TFO1 was then immobilized. After washing off the unbound oligonucleotide with Wash Buffer, the enzyme assay was performed. Into each well was added 24 µL of mixture containing 6 µL of Assay Buffer (containing ATP), 0.75 µL of relaxed (for E. coli DNA gyrase supercoiling assay) or supercoiled (for E. coli topoisomerase IV relaxation assay) pNO1 plasmid and 17.25 µL of water. Additionally, 3 µL of a solution of the inhibitor in 10% DMSO containing 0.008% Tween 20 and 3 µL of enzyme (1.5 U) in Dilution Buffer were also added to the wells. […] The TF buffer was added to terminate the enzymatic reaction and after additional incubation for 30 min at room temperature, which allowed for triplex formation (biotin–oligonucleotide–plasmid), the unbound plasmid was washed off using TF buffer. Promega Diamond dye in T10 buffer was then added. […] Here, the compounds were diluted using 2-fold serial dilution steps of the given compound. GraphPad Prism 6.0 software was used to calculate the IC50 values, which were determined in at least two independent measurements, and their means are given as the final result. […] Dose-response curves can be found in Supplementary Materials.

[1] = tested on: E. coli MG1655 GyrA S83L, D87N ParC S80I, E84G; assay: microbe, parasite or virus in culture; assay type: cell-based, Escherichia coli
Excerpt: as §1, §2, §3
(§6) These mutated amino acids are the most common sites for target-based resistance in E. coli.

[2] = tested on: E. coli MG1655 GyrB R136C; assay: microbe, parasite or virus in culture; assay type: cell-based, Escherichia coli
Excerpt: as §1, §2, §3, §6

P. aeruginosa ATCC 27863 = assay: MIC broth microdilution, P. aeruginosa; assay type: cell-based; settings: Pseudomonas aeruginosa
Excerpt: as §1, §2, §3

E. coli BW25113 WT = assay: MIC, E. coli BW25113 wild-type; assay type: cell-based; settings: Escherichia coli, BW25113, read-out: Minimum Inhibitory Concentration E. coli BW# WT
Excerpt: as §1, §2, §3

[3] = tested on: E. cloacae spp. cloacae ATCC 13047; assay: MIC broth microdilution, E. cloacae; assay type: cell-based, Enterobacter cloacae; settings: Enterobacter cloacae, ATCC13047, read-out: MIC E. cloacae spp. cloacae ATCC #
E. coli topoisomerase IV = molecular target: T2, E. coli topoisomerase IV (Escherichia coli, UniProt P0AFI2+P20083); assay: E. coli topoisomerase IV relaxation assay; assay type: biochemical
T2 construct: purchased Inspiralis, Norwich, UK
Method: as §4, §5

E. coli BW25113 ΔacrB = assay type: cell-based, Escherichia coli
Excerpt: as §1, §2, §3

E. coli BW25113 ΔsurA = assay type: cell-based, Escherichia coli
Excerpt: as §1, §2, §3

E. coli BW25113 ΔdapF = assay type: cell-based, Escherichia coli
Excerpt: as §1, §2, §3

E. coli BW25113 ΔtolC = assay type: cell-based, Escherichia coli
Excerpt: as §1, §2, §3

E. coli BW25113 ΔmrcB = assay type: cell-based, Escherichia coli
Excerpt: as §1, §2, §3

E. coli MG1655 WT = assay: MIC, E. coli MG1655 wild-type with PAβN; assay type: cell-based, Escherichia coli
Excerpt: as §1, §2
as §3, with “USA). […]” for “USA).”

K. pneumoniae ATCC 10031 = assay: MIC broth microdilution, K. pneumoniae; assay type: cell-based; settings: Klebsiella pneumoniae, ATCC10031, read-out: MIC K. pneumoniae ATCC #
Excerpt: as §1, §2, §3

[4] = molar conversion in parentheses
[5] = in the presence of 50 µg/mL PAβN

## Cc1[nH]c(C(=O)Nc2nc3ccc(C(=O)NCCOCCN4CCN(c5cc6c(cc5F)c(=O)c(C(=O)O)cn6C5CC5)CC4)cc3s2)c(Cl)c1Cl.Cl [Compound 11a, 4-(3-Carboxy-1-cyclopropyl-6-fluoro-4-oxo-1,4-dihydroquinolin-7-yl)-1-(2-(2-(2-(3,4-dichloro-5-methyl-1H-pyrrole-2-carboxamido)benzo[d]thiazole-6-carboxamido)ethoxy)ethyl)piperazin-1-ium chloride]
A. baumannii ATCC 17978; broth microdilution, 18 h
  MIC: > 64 µg/mL
A. baumannii ATCC 17978; [4]
  MIC: > 82.9 µM
E. coli ATCC 25922; broth microdilution, 18 h
  MIC: 32 µg/mL
E. coli ATCC 25922; [4]
  MIC: 41.5 µM
E. coli DNA gyrase
  IC50: 130 ± 30 nM
[1]; Escherichia coli, MG1655, read-out: Minimum Inhibitory Concentration E. coli MG# GyrA S83L, D87N ParC S80I, E84G
  MIC: 10.4 µM
[1]; [5]
  Minimum Inhibitory Concentration E. coli MG1655 GyrA S83L, D87N ParC S80I, E84G: 8 µg/mL
[2]; Escherichia coli, MG1655, read-out: Minimum Inhibitory Concentration E. coli MG# GyrB R#C
  MIC: 0.65 µM
[2]; [5]
  Minimum Inhibitory Concentration E. coli MG1655 GyrB R136C: 0.5 µg/mL
P. aeruginosa ATCC 27863; ATCC27863, 18 h, read-out: MIC P. aeruginosa ATCC #
  MIC: > 64 µg/mL
P. aeruginosa ATCC 27863; ATCC27863, read-out: MIC P. aeruginosa ATCC #, molar conversion in parentheses, read-out: MIC P. aeruginosa ATCC 27863
  MIC: > 82.9 µM
E. coli BW25113 WT; [4]
  MIC: 41.5 µM
E. coli BW25113 WT; wild-type
  MIC: 32 µg/mL
[3]; broth microdilution, 18 h
  MIC: 64 µg/mL
[3]; [4]
  MIC: 82.9 µM
E. coli topoisomerase IV
  IC50: > 10 µM
E. coli topoisomerase IV; relaxation assay
  Inhibition of topoisomerase IV (in words): lack of activity
other
  melting point: 187 to 190 °C
E. coli BW25113 ΔacrB; efflux pump mutant
  Minimum Inhibitory Concentration E. coli BW25113 ΔacrB: 32 µg/mL
E. coli BW25113 ΔacrB; [4]
  Minimum Inhibitory Concentration E. coli BW25113 ΔacrB: (41.5 µM)
E. coli BW25113 ΔsurA; impaired cell-wall mutant
  Minimum Inhibitory Concentration E. coli BW25113 ΔsurA: 16 µg/mL
E. coli BW25113 ΔsurA; [4]
  Minimum Inhibitory Concentration E. coli BW25113 ΔsurA: (20.7 µM)
E. coli BW25113 ΔdapF; impaired cell-wall mutant
  Minimum Inhibitory Concentration E. coli BW25113 ΔdapF: 32 µg/mL
E. coli BW25113 ΔdapF; [4]
  Minimum Inhibitory Concentration E. coli BW25113 ΔdapF: (41.5 µM)
E. coli BW25113 ΔtolC; efflux pump mutant
  Minimum Inhibitory Concentration E. coli BW25113 ΔtolC: 0.5 µg/mL
E. coli BW25113 ΔtolC; [4]
  Minimum Inhibitory Concentration E. coli BW25113 ΔtolC: (0.65 µM)
E. coli BW25113 ΔmrcB; impaired cell-wall mutant
  Minimum Inhibitory Concentration E. coli BW25113 ΔmrcB: 32 µg/mL
E. coli BW25113 ΔmrcB; [4]
  Minimum Inhibitory Concentration E. coli BW25113 ΔmrcB: (41.5 µM)
E. coli MG1655 WT; Escherichia coli, MG1655, read-out: Minimum Inhibitory Concentration E. coli MG# WT, 50 µg/mL PAβN, molar conversion in parentheses
  MIC: 0.65 µM
E. coli MG1655 WT; [5]
  Minimum Inhibitory Concentration E. coli MG1655 WT: 0.5 µg/mL
K. pneumoniae ATCC 10031; broth microdilution, 18 h
  MIC: 4 µg/mL
K. pneumoniae ATCC 10031; [4]
  MIC: 5.18 µM
